In ChEMBL document CHEMBL5649166, “RIP3 induces apoptosis independent of pronecrotic kinase activity” (Mol Cell, 2014):

Legend:
[1] = molecular target: T1, Receptor-interacting serine/threonine-protein kinase 3 (Homo sapiens, UniProt Q9Y572); assay: Inhibition of recombinant human RIP3 kinase domain (1 to 328 residues) expressed in baculovirus expression system by fluorescence polarization assay
[2] = molecular target: T2, Serine/threonine-protein kinase Nek3 (Homo sapiens) (UniProt P51956); assay: Residual activity of human NEK3 using myelin basic protein as substrate at 1 uM in presence of 32P-ATP by Hotspot assay relative to control
T2 sequence (whole entry): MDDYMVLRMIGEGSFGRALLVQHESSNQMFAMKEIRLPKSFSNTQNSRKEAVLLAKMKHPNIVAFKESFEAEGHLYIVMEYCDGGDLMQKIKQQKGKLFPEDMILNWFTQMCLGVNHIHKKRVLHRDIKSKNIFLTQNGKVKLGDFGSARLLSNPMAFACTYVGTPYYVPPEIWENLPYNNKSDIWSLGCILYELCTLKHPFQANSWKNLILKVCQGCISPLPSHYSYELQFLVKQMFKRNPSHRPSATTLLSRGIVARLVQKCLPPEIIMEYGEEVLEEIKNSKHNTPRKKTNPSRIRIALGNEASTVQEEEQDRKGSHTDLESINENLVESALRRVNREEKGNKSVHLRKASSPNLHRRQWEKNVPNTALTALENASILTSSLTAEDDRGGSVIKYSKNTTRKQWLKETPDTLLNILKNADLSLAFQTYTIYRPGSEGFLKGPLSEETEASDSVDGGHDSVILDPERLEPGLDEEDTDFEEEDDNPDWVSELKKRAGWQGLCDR

[3] = molecular target: T1, Receptor-interacting serine/threonine-protein kinase 3; assay: Inhibition of recombinant human RIP3 kinase activity by ADP-glo assay
[4] = tested on: SVEC4-10; assay: Cytotoxicity against mouse SVEC4-10 cells assessed as induction of apoptosis at 3 to 10 uM incubated for 18 hrs by Cell Titer-Glo luminescent cell viability assay; format: toxicity, cell-based; conditions: svec4-10, 18 h, dose 3-10 µM
[5] = tested on: L929; assay: Cytotoxicity against mouse L929 cells assessed as induction of apoptosis at 10 uM incubated for 18 hrs in presence of zVAD by Cell Titer-Glo luminescent cell viability assay; format: toxicity, cell-based; conditions: l929, 18 h
[6] = tested on: 3T3SA; assay: Cytotoxicity against mouse 3T3SA cells assessed as induction of apoptosis at 3 to 10 uM incubated for 18 hrs by Cell Titer-Glo luminescent cell viability assay; format: toxicity, cell-based; conditions: dose 3-10 µM
[7] = tested on: L929; assay: Cytotoxicity against mouse L929 cells assessed as induction of apoptosis at 3 to 10 uM incubated for 18 hrs by Cell Titer-Glo luminescent cell viability assay; format: toxicity, cell-based; conditions: l929, 18 h, dose 3-10 µM
[8] = tested on: MEF; assay: Cytotoxicity against MEF cells assessed as induction of apoptosis at 3 to 10 uM incubated for 18 hrs by Cell Titer-Glo luminescent cell viability assay; format: toxicity, cell-based; conditions: mouse, dose 3-10 µM
[9] = tested on: SVEC4-10; assay: Cytotoxicity against mouse SVEC4-10 cells assessed as induction of apoptosis at 10 uM incubated for 18 hrs in presence of zVAD by Cell Titer-Glo luminescent cell viability assay; format: toxicity, cell-based; conditions: svec4-10, 18 h
[10] = tested on: MEF; assay: Cytotoxicity against MEF cells assessed as induction of apoptosis at 10 uM incubated for 18 hrs in presence of zVAD by Cell Titer-Glo luminescent cell viability assay; format: toxicity, cell-based; conditions: mouse
[11] = tested on: 3T3SA; assay: Cytotoxicity against mouse 3T3SA cells assessed as induction of apoptosis at 10 uM incubated for 18 hrs in presence of zVAD by Cell Titer-Glo luminescent cell viability assay; format: toxicity, cell-based
[12] = molecular target: Dual specificity protein kinase CLK3 (Homo sapiens) (UniProt P49761); assay: Residual activity of human CLK3 using myelin basic protein as substrate at 1 uM in presence of 32P-ATP by Hotspot assay relative to control
Dual specificity protein kinase CLK3 (Homo sapiens), sequence (P49761 whole entry, looked up): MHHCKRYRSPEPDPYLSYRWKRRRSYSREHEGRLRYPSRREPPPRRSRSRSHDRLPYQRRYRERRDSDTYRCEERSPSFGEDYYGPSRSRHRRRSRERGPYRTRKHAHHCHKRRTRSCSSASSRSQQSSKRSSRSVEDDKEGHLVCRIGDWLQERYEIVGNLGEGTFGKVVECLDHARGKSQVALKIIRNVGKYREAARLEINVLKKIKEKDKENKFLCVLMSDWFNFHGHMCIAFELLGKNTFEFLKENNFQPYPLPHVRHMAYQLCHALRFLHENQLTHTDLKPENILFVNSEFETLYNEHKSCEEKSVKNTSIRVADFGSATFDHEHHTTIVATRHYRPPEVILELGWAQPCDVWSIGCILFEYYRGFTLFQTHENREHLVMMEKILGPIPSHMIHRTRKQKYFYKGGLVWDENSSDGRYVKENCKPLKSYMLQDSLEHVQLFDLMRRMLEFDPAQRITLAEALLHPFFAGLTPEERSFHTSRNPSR

[13] = tested on: BMDM; assay: Induction of apoptosis in mouse BMDM cells expressing RIP3 K51A/K51A mutant incubated for 18 hrs by Cell Titer-Glo luminescent cell viability assay; format: toxicity, cell-based
[14] = tested on: 3T3SA; assay: Induction of apoptosis in vICA expression plasmid transfected mouse 3T3SA cells co-transfected with shRNA-resistant RIP3 D143N mutant incubated for 12 hrs by Cell Titer-Glo luminescent cell viability assay; format: toxicity, cell-based
[15] = tested on: 3T3SA; assay: Induction of apoptosis in RIP3shRNA transfected mouse 3T3SA cells co-transfected with shRNA-resistant RIP3 T257A mutant pre-tranfected for 16 hrs followed by compound addition and measured after 18 hrs in presence of zVAD by Cell Titer-Glo luminescent cell viability assay; format: toxicity, cell-based
[16] = tested on: MEF; assay: Induction of apoptosis in RIP3-/- MEF cells expressing dox-induced RIP3 K51A mutant assessed as RIP1-RIP3 association incubated for 1 hrs by immunoblot analysis; format: toxicity, cell-based; conditions: mouse
[17] = tested on: 3T3SA; assay: Induction of apoptosis in vICA expression plasmid transfected mouse 3T3SA cells co-transfected with shRNA-resistant RIP3 K51A mutant incubated for 12 hrs by Cell Titer-Glo luminescent cell viability assay; format: toxicity, cell-based
[18] = tested on: 3T3SA; assay: Induction of apoptosis in mouse 3T3SA cells transfected with Caspase8 siRNA incubated for 2.5 hrs by Cell Titer-Glo luminescent cell viability assay; format: toxicity, cell-based
[19] = tested on: 3T3SA; assay: Induction of apoptosis in mouse 3T3SA cells assessed as cell death by measuring percent of PI positive cells incubated for 3 hrs by PI staining based flow cytometric analysis (reference value: 10.7%); format: toxicity
[20] = tested on: MEF; assay: Induction of apoptosis in cFLIPL-/- MEF cells transfected with cFLIPL expressing retrovirus incubated for 18 hrs by Cell Titer-Glo luminescent cell viability assay; format: toxicity, cell-based; conditions: mouse
[21] = tested on: MEF; assay: Induction of apoptosis in Casp8-/- MEF cells incubated for 18 hrs by Cell Titer-Glo luminescent cell viability assay; format: toxicity, cell-based; conditions: mouse
[22] = tested on: 3T3SA; assay: Induction of apoptosis in mouse 3T3SA cells incubated for 18 hrs in presence of BHA by Cell Titer-Glo luminescent cell viability assay; format: toxicity, cell-based
[23] = tested on: MEF; assay: Induction of apoptosis in MEF cells expressing RIP1 K45A/K45A mutant incubated for 18 hrs by Cell Titer-Glo luminescent cell viability assay; format: toxicity, cell-based; conditions: mouse
[24] = tested on: 3T3SA; assay: Induction of apoptosis in mouse 3T3SA cells assessed as accumulation of cleaved caspase-3 by measuring percentage of cleaved caspase-3 positive cells measured after 2.5 hrs by immunoblot analysis (reference value: 4%); format: toxicity, cell-based
[25] = tested on: BMDM; assay: Induction of apoptosis in mouse BMDM cells expressing wildtype RIP3 incubated for 18 hrs by Cell Titer-Glo luminescent cell viability assay; format: toxicity, cell-based
[26] = tested on: 3T3SA; assay: Induction of apoptosis in mouse 3T3SA cells incubated for 18 hrs in presence of zVAD by Cell Titer-Glo luminescent cell viability assay; format: toxicity, cell-based
[27] = tested on: MEF; assay: Induction of apoptosis in RIP3-/- MEF cells expressing dox-induced RIP3 K51A mutant assessed as RIP1-FADD association incubated for 1 hrs by immunoblot analysis; format: toxicity, cell-based; conditions: mouse
[28] = tested on: 3T3SA; assay: Induction of apoptosis in mouse 3T3SA cells assessed as increase in caspase 8 proteolytic activity incubated for 2.5 hrs; format: toxicity, cell-based
[29] = molecular target: Serine/threonine-protein kinase 38 (Homo sapiens) (UniProt Q15208); assay: Inhibition of human STK38/NDR1 using KKRNRRLSVA as substrate at 1 uM in presence of 32P-ATP by Hotspot assay relative to control; values are per cent of control
Serine/threonine-protein kinase 38 (Homo sapiens), sequence (Q15208 2-465 limits assumed): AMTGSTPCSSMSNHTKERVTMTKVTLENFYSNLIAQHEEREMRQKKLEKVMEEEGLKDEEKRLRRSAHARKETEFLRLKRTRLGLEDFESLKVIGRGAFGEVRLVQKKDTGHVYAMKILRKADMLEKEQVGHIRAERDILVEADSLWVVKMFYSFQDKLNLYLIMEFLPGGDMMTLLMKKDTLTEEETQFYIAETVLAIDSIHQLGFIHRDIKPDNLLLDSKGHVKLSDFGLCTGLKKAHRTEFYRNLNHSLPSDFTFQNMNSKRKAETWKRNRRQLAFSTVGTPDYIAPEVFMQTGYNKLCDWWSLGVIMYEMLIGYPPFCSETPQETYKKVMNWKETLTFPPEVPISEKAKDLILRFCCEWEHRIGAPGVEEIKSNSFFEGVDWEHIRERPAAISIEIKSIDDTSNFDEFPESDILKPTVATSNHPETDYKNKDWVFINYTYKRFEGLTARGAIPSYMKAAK

T1 sequence (Q9Y572 whole entry, the tested form may be a part): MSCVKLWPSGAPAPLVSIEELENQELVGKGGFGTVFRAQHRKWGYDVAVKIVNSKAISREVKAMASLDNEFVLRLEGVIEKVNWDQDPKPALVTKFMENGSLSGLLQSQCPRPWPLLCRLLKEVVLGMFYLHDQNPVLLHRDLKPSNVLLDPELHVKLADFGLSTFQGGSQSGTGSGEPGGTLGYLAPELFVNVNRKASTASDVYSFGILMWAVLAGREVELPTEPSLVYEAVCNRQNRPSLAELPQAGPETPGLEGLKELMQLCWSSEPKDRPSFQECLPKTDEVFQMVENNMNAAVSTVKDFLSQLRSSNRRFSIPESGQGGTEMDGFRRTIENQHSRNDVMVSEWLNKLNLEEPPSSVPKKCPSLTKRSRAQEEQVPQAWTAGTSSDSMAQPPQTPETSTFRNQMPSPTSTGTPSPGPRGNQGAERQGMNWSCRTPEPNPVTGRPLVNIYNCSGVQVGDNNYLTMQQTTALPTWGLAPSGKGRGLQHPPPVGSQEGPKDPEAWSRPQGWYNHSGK

Row | Structure (SMILES) | IC50 [1] [nM] | residual activity [2] [%] | IC50 [3] [nM] | Activity [4] | Activity [5] | Activity [6] | Activity [7] | Activity [8] | Activity [9] | Activity [10] | Activity [11] | residual activity [12] [%] | other results
1 | Cc1cc(-c2cnc(N)c3c(-c4ccc5scnc5c4)csc23)n(C)n1 | 8.6 | 99.7 | 6.5 | Toxic | Non-Toxic | Toxic | Toxic | Toxic | Non-Toxic | Non-Toxic | Non-Toxic | 98.3 | –
2 | CC(C)S(=O)(=O)c1ccc2nccc(Nc3ccc4scnc4c3)c2c1 | – | 92 | – | Toxic | Non-Toxic | Toxic | Toxic | Toxic | Non-Toxic | Non-Toxic | Non-Toxic | 99 | Activity [13]: Toxic; Activity [14]: Non-Toxic; Activity [15]: Non-Toxic; Activity [16]: Toxic; Activity [17]: Non-Toxic; Activity [18]: Non-Toxic; Activity [19]: 24%; Activity [20]: Toxic; Activity [21]: Non-Toxic; Activity [22]: Toxic; Activity [23]: Non-Toxic; Activity [24]: 29%; Activity [25]: Toxic; Activity [26]: Non-Toxic; Activity [27]: Toxic; Activity [28]: Toxic
3 | CNC(=O)c1ccc2c(c1)ncn2-c1ccc(CC(=O)OC(C)(C)C)cc1 | 0.9 | 91.3 | 0.3 | – | – | – | – | – | – | – | – | 97.4 | residual activity [29]: 96.4%
